Columns and labels:
Conditions in all cases: 72 h
Caco-2 [1] = experiment: cell viability relative to DMSO; higher = less toxic
Calu-3 [2] = experiment: as above
HepG2 [3] = experiment: as above
U2OS [4] = experiment: as above
Vero E6 [5] = experiment: as above
Caco-2 [6] = experiment: relative viability EC50 (midpoint between 100% and the lowest measured viability); higher = less toxic
Calu-3 [7] = experiment: as above
HepG2 [8] = experiment: as above
U2OS [9] = experiment: as above
Vero E6 [10] = experiment: as above
Caco-2 [11] = experiment: drug sensitivity score (DSS) for viability; higher = more toxic; extreme values may be limits of the assay
Calu-3 [12] = experiment: as above
HepG2 [13] = experiment: as above
U2OS [14] = experiment: as above
Vero E6 [15] = experiment: as above

Compound | cell viability (Caco-2 [1]; 1 nM) | cell viability (Caco-2 [1]; 10 nM) | cell viability (Caco-2 [1]; 100 nM) | cell viability (Caco-2 [1]; 1000 nM) | cell viability (Caco-2 [1]; 10000 nM) | cell viability (Calu-3 [2]; 1 nM) | cell viability (Calu-3 [2]; 10 nM) | cell viability (Calu-3 [2]; 100 nM) | cell viability (Calu-3 [2]; 1000 nM) | cell viability (Calu-3 [2]; 10000 nM) | cell viability (HepG2 [3]; 1 nM) | cell viability (HepG2 [3]; 10 nM) | cell viability (HepG2 [3]; 100 nM) | cell viability (HepG2 [3]; 1000 nM) | cell viability (HepG2 [3]; 10000 nM) | cell viability (U2OS [4]; 1 nM) | cell viability (U2OS [4]; 10 nM) | cell viability (U2OS [4]; 100 nM) | cell viability (U2OS [4]; 1000 nM) | cell viability (U2OS [4]; 10000 nM) | cell viability (Vero E6 [5]; 1 nM) | cell viability (Vero E6 [5]; 10 nM) | cell viability (Vero E6 [5]; 100 nM) | cell viability (Vero E6 [5]; 1000 nM) | cell viability (Vero E6 [5]; 10000 nM) | relative viability EC50 (Caco-2 [6]) | relative viability EC50 (Calu-3 [7]) | relative viability EC50 (HepG2 [8]) | relative viability EC50 (U2OS [9]) | relative viability EC50 (Vero E6 [10]) | drug sensitivity score (Caco-2 [11]) | drug sensitivity score (Calu-3 [12]) | drug sensitivity score (HepG2 [13]) | drug sensitivity score (U2OS [14]) | drug sensitivity score (Vero E6 [15])
Cc1nc2n(c(=O)c1CCN1CCC(c3noc4cc(F)ccc34)CC1)CCCC2O (stereo not given) [paliperidone] | 93.6% | 106% | 90.7% | 104% | 118% | 104% | 104% | 93.2% | 100% | 102% | 107% | 104% | 108% | 95% | 100% | 99.5% | 103% | 97% | 101% | 99.9% | 113% | 106% | 109% | 103% | 92.4% | > 10 µM | > 10 µM | > 10 µM | > 10 µM | > 10 µM | 0 | 0 | 0 | 0 | 0
CC(C)(C)c1cc(C=C(C#N)C#N)cc(C(C)(C)C)c1O [tyrphostin-A9] | 96.5% | 98.3% | 95.8% | 70.1% | 20.5% | 97.4% | 96.3% | 99% | 92.8% | 44.1% | 104% | 101% | 98.7% | 74.3% | 8.9% | 106% | 97.9% | 100% | 90.6% | 22.4% | 100% | 106% | 97.8% | 97.2% | 17.5% | 1.29 µM | 2.12 µM | 1.45 µM | 2.18 µM | 2.91 µM | 8.1 | 4.2 | 8.9 | 5.9 | 5
CC(N)Cc1c[nH]c2ccc(OCc3cccs3)cc12 (stereo not given) [BW-723C86] | 99.8% | 97.7% | 93% | 94.8% | 98.8% | 109% | 95.6% | 98.6% | 104% | 76.5% | 102% | 107% | 96.8% | 95.5% | 81% | 102% | 98.2% | 99% | 98.2% | 96.9% | 96% | 94.9% | 95.1% | 96.1% | 89.1% | > 10 µM | > 10 µM | > 10 µM | > 10 µM | > 10 µM | 0 | 0.7 | 1 | 0 | 0
CC(C)C[C@@H](N)C(=O)N[C@H]1C(=O)N[C@@H](CC(N)=O)C(=O)N[C@H]2C(=O)N[C@H]3C(=O)N[C@H](C(=O)N[C@H](C(=O)O)c4cc(O)cc(O)c4-c4cc3ccc4O)[C@H](O)c3ccc(c(Cl)c3)Oc3cc2cc(c3O[C@@H]2O[C@H](CO)[C@@H](O)[C@H](O)[C@H]2O[C@H]2C[C@](C)(N)[C@H](O)[C@H](C)O2)Oc2ccc(cc2Cl)[C@H]1O [norvancomycin] | 91.9% | 93.8% | 104% | 95.7% | 98.5% | 102% | 100% | 104% | 97.9% | 91.9% | 102% | 95.8% | 97.3% | 86.9% | 97.7% | 100% | 104% | 96.6% | 102% | 102% | 109% | 94.8% | 102% | 97% | 104% | > 10 µM | > 10 µM | > 10 µM | > 10 µM | > 10 µM | 0 | 0 | 0 | 0 | 0
COc1cccc([C@H](O)C2CCN(CCc3ccc(F)cc3)CC2)c1OC [volinanserin] | 101% | 97.3% | 101% | 90.8% | 88.9% | 90.9% | 104% | 99.9% | 101% | 95.1% | 99.9% | 99.9% | 95.8% | 101% | 91.3% | 103% | 96.2% | 99.7% | 98.6% | 98.5% | 102% | 99.9% | 98.9% | 101% | 96.1% | > 10 µM | > 10 µM | > 10 µM | > 10 µM | > 10 µM | 0.2 | 0 | 0 | 0 | 0
CC(=O)OCC1=C(C(=O)O)N2C(=O)[C@@H](N)[C@H]2SC1 [7-aminocephalosporanic-acid] | 101% | 106% | 102% | 98.7% | 100% | 116% | 102% | 97.5% | 99.5% | 115% | 105% | 117% | 109% | 115% | 99.7% | 101% | 99% | 100% | 97.8% | 101% | 97.5% | 100% | 96.4% | 95.5% | 98.8% | > 10 µM | > 10 µM | > 10 µM | > 10 µM | > 10 µM | 0 | 0 | 0 | 0 | 0
O=C1C(=Cc2cccnc2)C(=O)c2ccccc21 [PRT4165] | 107% | 86.5% | 101% | 87.1% | 98.2% | 104% | 103% | 98.4% | 97.4% | 95.6% | 113% | 98.5% | 92.1% | 103% | 87.6% | 102% | 98.9% | 99.1% | 99.6% | 98.3% | 96.1% | 99% | 103% | 98.4% | 87.6% | > 10 µM | > 10 µM | > 10 µM | > 10 µM | > 10 µM | 0 | 0 | 0 | 0 | 0.2

Reference: the supplement of paper PMC13380429
